This note sets out measurements from publication PMC3679022, “A Cancer Specific Cell-Penetrating Peptide, BR2, for the Efficient Delivery of an scFv into Cancer Cells” (PLoS ONE, 2013).

The subject of series [1] is cancer cells (HeLa, HCT116 and B16/F10). Nature of the series: Confocal laser scanning microscopy of FITC-labeled peptide uptake, cancer cells. The series is classed as cell-based, human, mouse. Particulars: FITC-labeled peptide 5 µM, 30 min, 37°C, live unfixed cells. How it is done: (§1) To investigate the cell-penetrating ability and the intracellular distribution of the internalized peptides, live confocal microscopy was performed on three cancer lines (HeLa, HCT116 and B16/F10) and three normal cell lines (HaCat, BJ and NIH 3T3). Briefly, cells (2×10^5) were plated on a glass coverslip placed in a 6-well plate, grown overnight, and then incubated with FITC-labeled peptides (5 µM for each cell line) for 30 min. The cells were then rinsed three times with phosphate buffered saline (PBS, pH 7.4), and mounted on microscope slides with fluorescence mounting solution (Dako Corp, Carpinteria, CA). Colocalization of BR2 with lysosomes was observed by using LysoTracker Red DND-99 (Molecular Probe, Eugene, OR). To avoid the effects of fixation artifacts, involving both methanol and paraformaldehyde, cells were not fixed, [27]. The distribution of FITC-labeled peptides was analyzed using a confocal scanning laser Zeiss LSM 510 microscope (Jena, Germany) equipped with a 40× and 20× objective. Fluorophores were excited with an argon laser (488 nm) for FITC and a HeNe laser (543 nm) for LysoTracker Red.
(§2) (B,C) In vitro cytotoxicity of peptides.

For series [2], the system named is normal cells (HaCat, BJ and NIH 3T3). Nature of the series: Confocal laser scanning microscopy of FITC-labeled peptide uptake, normal cells. The series is classed as cell-based, human, mouse. The following applies: FITC-labeled peptide 5 µM, 30 min, 37°C, live unfixed cells. How it is done:
as §1, §2

In series [3] the test system is HCT116 cells (K-ras mutated cells). Nature of the series: Cell proliferation assay (MTT). The following applies: same concentrations as fusion proteins (Fig. S4:), 24 h. Also on record: dose or concentration left out as unconfirmed. The series is classed as cell-based, human. How it is done:
To assess the anti-proliferative activity of peptides and anti-Ras scFv fusion proteins, HCT116 cells (K-ras mutated cells) were seeded in 96-well plates at a density of 2×10^4 cells/well in 100 µL of DMEM supplemented with 10% FBS and cultured for 24 h at 37°C. […] Cell viability was measured with the 3-(4,5-dimethylthiazol-2-yl)-2,5-diphenyl tetrazolium bromide (MTT) assay using the CellTiter 96® Non-radioactive Cell Proliferation assay kit (Promega, Madison, WI) according to the manufacturer’s instructions. The absorbance of the solution was measured at 570 nm using a Microplate Reader (Bio-Rad). Cell viability was expressed as the percentage of viable cells treated with scFv or peptide-scFv fusion proteins compared to the PBS-treated control (100%). All experiments were done in triplicate.
Figure 4 Intracellular uptake of peptides and anti-Ras scFv fusion proteins and their anti-proliferative activity. […] (B) Protein uptake was analyzed by Western blotting of fractionated lysates from HCT116 cells treated with PBS, anti-Ras scFv, BR2- or Tat-scFv fusion protein (each, 2 µM) at 37°C for 2 h. […] Cell proliferation was determined using the MTT assay. […]
HCT116 cells were seeded in 96-well plates at a density of 2×10^4 cells/well in 100 μl of DMEM supplemented with 10% FBS and cultured for 24 h at 37°C. […] The absorbance of the solution was measured at 570 nm using a Microplate Reader (Bio-Rad). […]

The subject of series [4] is cancer cell lines (HeLa, HCT116 and B16/F10). The series is described as follows: In vitro cytotoxicity assay (LDH leakage), cancer cell lines. Particulars: 100 µM peptide, 24 h, 37°C; 0.2% Triton X-100 = 100%; n = 3. (LDH leaks from cells whose membrane has failed.)
Protocol: (§3) The cytotoxicity of peptides to mammalian cells was investigated by assessing the release of lactate dehydrogenase (LDH) from cancer and normal cells. The amount of LDH released from damaged cells into the supernatant was measured using the Cytotoxicity Detection Kit (Roche Applied Science, Germany) according to the manufacturer’s instructions. In brief, cells were plated onto 96-well microplates (1×10^4 cells per well) in complete DMEM supplemented with 10% FBS and incubated overnight at 37°C to allow for attachment and spreading of cells. After 24 h of incubation, cells were treated with various concentrations of peptides (0–100 µM) and incubated for another 24 h at 37°C. The extracellular medium from each well was transferred to a new microplate and incubated for 10 min with 100 µl/well reaction mixture, followed by a stop solution. Absorbance was measured at 490 nm by using an ELISA plate reader. LDH release from cells lysed with 0.2% Triton X-100 in PBS was defined as 100% leakage and LDH release from untreated cells as 0% leakage.
(§4) (B,C) In vitro cytotoxicity of peptides. (B) Membrane disturbance was measured by lactate dehydrogenase (LDH) leakage from the indicated cell lines 24 h after peptide treatment. LDH leakage from cells seeded in a 96-well plate at 10,000 cells/well was measured after exposure to 1, 2, 5, 10, 20, 50 or 100 µM peptides for 24 h. […]
The test system of series [5] is normal cell lines (HaCat, BJ and NIH 3T3). Nature of the series: In vitro cytotoxicity assay (LDH leakage), normal cell lines. Particulars: 24 h, 37°C.
Protocol: as §3, §4

Turning to RAGLQFPVGRLLRRLLR [BR2], the figures for the “cellular uptake (confocal microscopy)” value in series [1] and in series [2] were “readily internalized” and “very poorly internalized”, respectively. For the same sequence, the “anti-proliferative activity of peptide alone” value in series [3] is on record as “did not show any detectable inhibitions”. The LDH leakage is recorded as 40–60% in series [4]; ~17% in series [5] (100 µM peptide, 0.2% Triton X-100 = 100%, n = 3); “not detected” in series [5] (peptide concentrations below 70 µM).
